“Also recorded” adds a separate entry of the source.
Tests used:
[1] = tested on: TGR5 null mice; experiment: chronic PO fexaramine in HFD-fed TGR5-null mice; assay type: in vivo; conditions: 100 mg/kg/day PO 5 weeks
Description: HFD-fed TGR5-null mice were treated with vehicle or fexaramine (100 mg/kg os daily for 5 weeks with HFD, n=10). (A) Ileal FXR target gene expressions (B) Serum BA levels (C) Fasting glucose levels (D) Glucose tolerance test (E) Core body temperature (F) Oxygen consumption rate (G) Carbon dioxide production (H) Gene expression in BAT (I) Body weight curve (J) Body composition by MRI (K) Insulin Tolerance Test (L) Hepatic gene expression (M) Hepatic TG levels (N) and Gene expression in soleus of TGR5 knockout mice with and without fexaramine treatment. Data represent the mean±SD. Statistical analysis was performed with the Student's t test. *p<0.05, **p<0.01.
To address this possibility, HFD-fed TGR5 null mice were chronically treated with Fex (100 mg/kg/day PO for 5 weeks). […] In particular, the anti-lipogenic effects of Fex in the liver appear to require TGR5 activation, as key hepatic lipogenic genes and liver triglyceride content were not affected by Fex treatment (FIGS. 11L, 11M).

[2] = biological target: T1, human TGR5 (Homo sapiens, UniProt Q8TDU6); experiment: TGR5 activation, cAMP-response element luciferase in HEK293 cells; assay type: cell-based; conditions: 24 hours after transfection
T1 construct: expressed in transfected cells; host or cells: HEK293 cells
T1 sequence (Q8TDU6 1-330): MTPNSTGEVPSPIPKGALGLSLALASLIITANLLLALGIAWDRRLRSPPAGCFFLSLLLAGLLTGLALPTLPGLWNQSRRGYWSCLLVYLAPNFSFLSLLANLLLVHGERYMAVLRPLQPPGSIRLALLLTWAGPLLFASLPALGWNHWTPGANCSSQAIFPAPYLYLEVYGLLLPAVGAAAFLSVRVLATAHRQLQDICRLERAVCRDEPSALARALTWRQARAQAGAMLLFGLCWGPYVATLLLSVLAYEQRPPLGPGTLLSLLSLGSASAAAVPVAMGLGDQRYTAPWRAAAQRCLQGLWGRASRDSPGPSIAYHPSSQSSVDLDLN
Description: HEK293 cells were transfected with expression vectors for cAMP-response element luciferase, β-galactosidase and human TGR5. 24 hours after transfection, cells were treated with fexaramine or INT-777 (a TGR5 agonist).

[3] = tested on: ApcMin/+ mice; experiment: ApcMin/+ colon cancer mouse model; assay type: in vivo
Description: The farnesoid X receptor (FXR) is a bile acid activated nuclear receptor widely expressed through the body. The ability of the intestinal-specific FXR ligand fexaramine to inhibit the progression of colon cancer in mice with a heterozygote mutation for the Apc gene (ApcMin/+ mice on a C57B6 background obtained from Jackson Laboratories) was determined.
5 week old ApcMin/+ mice (13-15 males per group receiving a standard diet, a model for colorectal and intestinal cancer) were treated with vehicle (corn oil) or fexaramine (FEX, 100 mg/kg in corn oil) by oral gavage, three times a week for 23 weeks. Mice body weight and food-intake were measured daily. At the end of the treatment regimen, surviving animals were sacrificed by cervical dislocation and the entire intestinal tract was immediately removed and washed with cold phosphate-buffered saline.
At the completion of the treatment, the colons were removed, flushed with PBS, fixed as “Swiss-rolls” in 4% paraformaldehyde at 4° C. overnight, and paraffin-embedded. Sections (5 μm) were cut stepwise (200 μm) through the complete block and stained with H&E. Tumor counts were performed blinded by a trained pathologist. To determine proliferation rates, mice were injected i.p. with 100 mg/kg of BrdU 2.5 hours prior to sacrifice and paraffin sections stained using a BrdU-in situ detection kit. The extent of apoptosis was determined by TUNEL assay using the ApoAlert DNA fragmentation assay kit. BrdU- and TUNEL-positive cells were counted by an investigator blinded to the genotype. For immunohistochemistry, antigen retrieval was performed (Vector Lab H3300) and then RTU Vectastain Universal Elite ABC Kit and NovaRED or VIP substrate (all from Vector Lab) were used, following the manufacturer's instructions.
Statistical analysis were performed in collaboration with the Cancer Prevention-Biostatistics department at the University of California at San Diego Cancer Center. This is part of an ongoing collaboration and has previously been applied to the APC^Min model of colorectal cancer as well as to several other cancer models including prostate and breast cancer. The volume of polyps was calculated considering them as hemispheres (½×[…] π r^3). All other evaluations were performed in the distal tract of the small intestine because ApcMin/+ mice develop the majority of tumors in the small intestine.

[4] = tested on: serum bile acid composition; experiment: serum bile acid composition by mass spectrometry in HFD mice; assay type: in vivo; conditions: 100 mg/kg/day per os 5 week
Description: Mice fed a HFD for 14 weeks were maintained on a HFD and treated with vehicle or fexaramine (100 mg/kg/day per os for 5 week). Serum bile acid composition was determined by mass spectrometry. N.D not determined.

[5] = tested on: FXR-null mice; experiment: chronic PO fexaramine in HFD fed FXR-null mice; assay type: in vivo; conditions: 100 mg/kg 5 week with HFD
Description: Data represent the mean±SD. Statistical analysis was performed with the Student's t test. *p<0.05, **p<0.01.
Therefore, glucose tolerance tests (GTTs) and insulin tolerance tests (ITTs) were performed to determine if glucose homeostasis was improved in fexaramine-treated DIO mice.

## COC(=O)/C=C/c1cccc(N(Cc2ccc(-c3ccc(N(C)C)cc3)cc2)C(=O)C2CCCCC2)c1 [Fexaramine, fexaramine]
[1]
  FXR target genes in the ileum incl. FGF15: induced
  core body temperature and metabolic rate: somewhat blunted increases
  fasting glucose levels and glucose tolerance: moderate improvements
  hepatic lipogenic genes and liver triglyceride content: not affected
  serum BA levels: lowered
  weight gain or insulin sensitivity: no significant changes
[2]
  activation of TGR5: fails to activate TGR5
[2]; listed as Fex
  activation of TGR5: does not activate
[3]; 100 mg/kg oral gavage three times a week
  colon cancer-induced cachexia (weight loss): resistant to colon cancer-induced cachexia
[3]; after 23 weeks
  serum total cholesterol and triglyceride levels: reduces circulating triglycerides; also recorded: reduced
  tumor size in duodenum, jejunum, ileum and throughout the intestine: dramatic reduction in tumor size
  tumors in colon sections: No tumors were observed
[3]; after 23 weeks, p 0.04
  reduction in total tumor burden versus vehicle: 20%
[3]; after 23 weeks, p 0.08
  reduction in tumor burden in the ileum: 25%
  reduction in tumor burden in the jejunum: 11.75%
[3]; after 23 weeks, p 0.73
  tumor burden in the duodenum: no change in tumor burden
[3]; vehicle 20%
  survival at 25 weeks: 80%
[3]; vehicle-treated mice lose ˜10%
  body weight change: maintain their weight
[4]
  Bile Acid Composition (%): CA: 7.51%
  Bile Acid Composition (%): CDCA: 2.51%
  Bile Acid Composition (%): DCA: 7.67%
  Bile Acid Composition (%): GLCA: 0.51%
  Bile Acid Composition (%): HDCA: 0.36%
  Bile Acid Composition (%): LCA: 28.13%
  Bile Acid Composition (%): T-UDCA: 3.07%
  Bile Acid Composition (%): T-beta MCA: 29.16%
  Bile Acid Composition (%): TCA: 12.23%
  Bile Acid Composition (%): TCDCA: 1.13%
  Bile Acid Composition (%): TDCA: 1.02%
  Bile Acid Composition (%): UDCA: 0.05%
  Bile Acid Composition (%): omega MCA: 6.65%
[5]
  Fex-induced changes in gene expression and metabolic homeostasis: abrogated
